In patent US20180179524A1, “COMPOSITIONS AND METHODS FOR INHIBITING CELL PROLIFERATION” (President and Fellows of Harvard College, priority 2015, published 2018):

Test system: luciferase-based reporter constructs in S2R+ cells
Assay: Luciferase-based mutation reporter assay (sgRNA mutation efficiency)
Format: cell-based, Drosophila
Conditions: sgRNAs with no mismatches targeting luciferase-based reporter in S2R+ cells; mutation rate = 1/Firefly luciferase normalized to Renilla
Description: The luciferase reporter vector was constructed by PCR amplifying the metallothionein promoter from pMK33 and luciferase gene from pGL3 (Table 1) and combining these with annealed oligos containing a gRNA target site (Table 1 and Table 2) and a custom made cloning vector using Golden Gate assembly.
Luciferase assays were performed by transfecting S2R+ cells with the relevant pl018 plasmid, luciferase reporter and pRL-TK (Promega) (to allow normalization of transfection efficiencies between samples) in 96 well plates using Effectene Transfection Reagent (Qiagen) according to the manufacturer's recommendations. Twenty-four hours after transfection, CuSO4 was added to the cell media at a final concentration of 140 μM and cells were incubated for a further 16 hours.
Firefly and Renilla luciferase readings were taken using the Dual-Glo Luciferase Assay System (Promega) according to manufacturer's instructions and a SpectraMax Paradigm Multi-Mode Microplate Detection Platform (Molecular Devices).
Because the rate of mutations varies widely between different sgRNAs (25-27), whether efficiency could be predicted based on the sgRNA sequence was tested. 75 additional sgRNAs were generated, each targeting luciferase-based reporter constructs with no mismatches and tested mutation efficiency for each. Using this panel of sgRNAs and associated efficiencies, the presence or absence of a correlation between GC content and mutation rate was examined. […] Next, whether a more general sequence-based approach was tested for its ability to improve efficiency prediction. The nucleotide content of all 75 sgRNAs was examined, considering each position separately and generated a probability matrix linking nucleotide content with mutation rate (FIG. 1, panel B). This was then used to generate predicted efficiency scores based on sgRNA sequence. […] Note that sgRNAs targeting close to the 3′ end of genes or with apparent viability effects were not included in this analysis. Finally, predicted scores were generated for all sgRNA target sites in the Drosophila genome and annotated.

Row | Compound | Mean efficiency
1 | GCCCAGGGGGAATCGGCCGC: sgRNA targeting a luciferase-based reporter construct, no mismatches (chemistry not given here) | 0.4072
2 | GCCCGAAAGACACGTTTTTT: sgRNA targeting a luciferase-based reporter construct, no mismatches (chemistry not given here) | 0.197
3 | GCGAGTTATCTATCCCCAGG: sgRNA targeting a luciferase-based reporter construct, no mismatches (chemistry not given here) | 0.4749
4 | GCTCTGGACCATACGGGGAT: sgRNA targeting a luciferase-based reporter construct, no mismatches (chemistry not given here) | 0.1746
5 | GGAATAACCACGTCCCGCGT: sgRNA targeting a luciferase-based reporter construct, no mismatches (chemistry not given here) | 0.2894
6 | GGAGCGAGTTATCTATCCCC: sgRNA targeting a luciferase-based reporter construct, no mismatches (chemistry not given here) | 0.06181
7 | GGATGTTCCGGCACAACGCC: sgRNA targeting a luciferase-based reporter construct, no mismatches (chemistry not given here) | 0.2753
8 | GGCACCGGGTAGCCTTGCGC: sgRNA targeting a luciferase-based reporter construct, no mismatches (chemistry not given here) | 0.3497
9 | GGGCTCCAGGCTGCGCGCAA: sgRNA targeting a luciferase-based reporter construct, no mismatches (chemistry not given here) | 0.2308
10 | GGTTACCAACTCAGGACCCG: sgRNA targeting a luciferase-based reporter construct, no mismatches (chemistry not given here) | 0.4858
11 | GGTTCACTATTGGGGCGATC: sgRNA targeting a luciferase-based reporter construct, no mismatches (chemistry not given here) | 0.1771
12 | GTCGGAACCTGAGTCGTTTT: sgRNA targeting a luciferase-based reporter construct, no mismatches (chemistry not given here) | 0.5891
13 | GTGCTGCGCCAACCCAAATA: sgRNA targeting a luciferase-based reporter construct, no mismatches (chemistry not given here) | 0.0849
14 | GTGGAATCTACTGTGGAATC: sgRNA targeting a luciferase-based reporter construct, no mismatches (chemistry not given here) | 0.2969
15 | GTGTCCAGGCTCGTCATGCC: sgRNA targeting a luciferase-based reporter construct, no mismatches (chemistry not given here) | 0.8603
16 | TAAGACATACGTACGCCCAG: sgRNA targeting a luciferase-based reporter construct, no mismatches (chemistry not given here) | 0.1814

Row | Compound | Mean efficiency
17 | TCCTATTACTGCGTGCAGCC: sgRNA targeting a luciferase-based reporter construct, no mismatches (chemistry not given here) | 1.342
18 | TCGAGGATGGGACGCTTATC: sgRNA targeting a luciferase-based reporter construct, no mismatches (chemistry not given here) | 0.5053
19 | TCGATGACGCCCGGGTTAAC: sgRNA targeting a luciferase-based reporter construct, no mismatches (chemistry not given here) | 0.26
20 | TCGCGGGCTTGCATGACGCG: sgRNA targeting a luciferase-based reporter construct, no mismatches (chemistry not given here) | 0.3295
21 | TCGTACCGCACCGGTATTTT: sgRNA targeting a luciferase-based reporter construct, no mismatches (chemistry not given here) | 0.1565
22 | TGACGCCTCAGGGTGCCGTC: sgRNA targeting a luciferase-based reporter construct, no mismatches (chemistry not given here) | 0.6594
23 | TGCGCTTACCGACGATTGGG: sgRNA targeting a luciferase-based reporter construct, no mismatches (chemistry not given here) | 0.1109
24 | TGCGGTCGCGTGAGAAATAT: sgRNA targeting a luciferase-based reporter construct, no mismatches (chemistry not given here) | 0.02876
25 | TGTTCCCTACACGGCGCCAG: sgRNA targeting a luciferase-based reporter construct, no mismatches (chemistry not given here) | 0.2531
26 | TTCTCCGCTGTTATCCTATA: sgRNA targeting a luciferase-based reporter construct, no mismatches (chemistry not given here) | 0.08182
27 | TTCTGAGTACATGTGATACC: sgRNA targeting a luciferase-based reporter construct, no mismatches (chemistry not given here) | 0.2974
28 | TTGACATCAGCGCGCGAGGC: sgRNA targeting a luciferase-based reporter construct, no mismatches (chemistry not given here) | 0.3893
29 | TTGGCCGCGACCTGTTTATC: sgRNA targeting a luciferase-based reporter construct, no mismatches (chemistry not given here) | 0.9282
30 | TTGTTCGAAGATCTGCGCGA: sgRNA targeting a luciferase-based reporter construct, no mismatches (chemistry not given here) | 0.2212
31 | TTGTTTGCTGGTACAAACGC: sgRNA targeting a luciferase-based reporter construct, no mismatches (chemistry not given here) | 0.2993
32 | TTTTTTTGGGATCATATACG: sgRNA targeting a luciferase-based reporter construct, no mismatches (chemistry not given here) | 0.1278

Test system: Tsc2−/− MEFs
Assay: Proliferation of Tsc2-/- MEFs relative to Tsc2+/+ MEFs treated with compounds (FIG. 9)
Format: cell-based
Conditions: 2 μM; FIG. 9 panel C
Description: FIG. 9 is a series of panels, panels A-E showing TSC2 loss confers sensitivity to CCNT1, RNGTT, or CDK11 loss of function. Panel A is a schematic of the methods disclosed herein. […] Panel B represents data corresponding to the CDK9/CDK11 inhibitor JWD07 (5 μM). Panel C represents data corresponding to the CDK2/CDK9/CDK11 inhibitor AT7915 (2 μM). Panel D represents data corresponding to the RNGTT/IMPDH inhibitor Mizoribine (2.5 μM). Panel E represents data corresponding to the mTORC1 inhibitor Rapamycin (20 nM).

Row | Compound | proliferation of Tsc2−/− MEFs relative to Tsc2+/+ MEFs
33 | O=C(NC1CCNCC1)c1n[nH]cc1NC(=O)c1c(Cl)cccc1Cl [AT7915] | selectively reduce proliferation

Same assay, conditions: 2.5 μM; FIG. 9 panel D

Row | Compound | proliferation of Tsc2−/− MEFs relative to Tsc2+/+ MEFs
34 | NC(=O)c1ncn([C@@H]2O[C@H](CO)[C@@H](O)[C@H]2O)c1O [Mizoribine] | selectively reduce proliferation

Same assay, conditions: JWD07 5 μM, AT7915 2 μM, Mizoribine 2.5 μM

Row | Compound | cytotoxic effect on Tsc2−/− cells
35 | O=C(NC1CCNCC1)c1n[nH]cc1NC(=O)c1c(Cl)cccc1Cl [AT7915] | exert a cytotoxic effect
36 | NC(=O)c1ncn([C@@H]2O[C@H](CO)[C@@H](O)[C@H]2O)c1O [Mizoribine] | exert a cytotoxic effect

Same assay, conditions: JWD07 5 μM, AT7915 2 μM, Mizoribine 2.5 μM vs Rapamycin 20 nM

Row | Compound | selective effects on cell viability in Tsc2−/− cells compared with rapamycin
37 | O=C(NC1CCNCC1)c1n[nH]cc1NC(=O)c1c(Cl)cccc1Cl [AT7915] | superior to rapamycin
38 | NC(=O)c1ncn([C@@H]2O[C@H](CO)[C@@H](O)[C@H]2O)c1O [Mizoribine] | superior to rapamycin
